# From patent US11000033B2, “Ketone or oxime compound, and herbicide” (NISSAN CHEMICAL CORPORATION, priority 2014, dated 2021)
# Assays:
# Type in all cases: in vivo
# beet = test: Test Example 4: effect on crop by soil treatment (symbol f); details: for f: beet, effect grade on crop: 320 g/ha
# How it was run: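 Crop seeds, among them rice, wheat, beet and rapeseed, were sown in sterilized diluvial soil and covered with about 1.5 cm of soil. Boxes were kept in a greenhouse at 25° C. to 30° C. for plant growth.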
# rapeseed = test: Test Example 5: effect on crop by foliage application, plastic box (symbol g); details: 320 g/ha, 3 weeks after application
# How it was run: (§1)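 Greenhouse culture at 25° C. to 30° C. followed spot-like sowing into sterilized diluvial soil, with seed covered by roughly 1.5 cm of soil.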
# Chenopodium album [1] = test: Test Example 4: herbicidal effect by soil treatment (symbol O)
# How it was run: (§2)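 Seeds were sown in sterilized diluvial soil, covered with about 1.5 cm of soil, and the soil surface was sprayed with a water-diluted emulsion of the compound at a predetermined rate. Plants grew in a greenhouse at 25° C. to 30° C.; effects were scored visually 3 weeks after application.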
# Chenopodium album [2] = test: Test Example 5: herbicidal effect by foliage application, plastic box (symbol O); details: 320 g/ha, 3 weeks after application
# How it was run: (§3)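 Sowing in sterilized diluvial soil, 14 days' greenhouse growth at 25° C. to 30° C., then uniform small-sprayer foliar application of aqueous emulsion dilution; plants scored three weeks afterwards.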
# Digitaria ciliaris = test: Test Example 5: herbicidal effect by foliage application, plastic box (symbol F); details: 320 g/ha, 3 weeks after application
# How it was run: as §3
# rice plant = test: Test Example 5: effect on crop by foliage application, plastic box (symbol b); details: 320 g/ha, 3 weeks after application
# How it was run: as §1
# Stellaria media = test: Test Example 4: herbicidal effect by soil treatment (symbol P)
# How it was run: as §2
# Scirpus juncoides [3] = test: Test Example 2: herbicidal activity, application during weed generation in submerged conditions (symbol B); details: Table 23; application herbicide amount 320 g/ha; grade 0-5 by criteria of Test Example 1
# How it was run: (§4)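 Read-out: herbicidal effect on each species rated on a visual scale 3 weeks after treatment. Plants were raised together from seed in flooded alluvial soil (4 cm water) at 25° C. to 30° C. and treated at one to two leaves by water-surface application of diluted emulsion.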
# [4] = test system: Echinochloa crus-galli var. crus-galli; test: Test Example 3: herbicidal effect by foliage application, Wagner pot (symbol H); details: application herbicide amount 320 g/ha; for H (Echinochloa crus-galli var. crus-galli) herbicidal effect grade: Table 24
# How it was run: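 Scoring took place 3 weeks after application, using fixed criteria. Plants had been raised from seed for 14 days at 25 to 30 °C in submerged alluvial soil before a diluted emulsion of the test compound was sprayed uniformly on the leaves.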
# Avena fatua = test: Test Example 4: herbicidal effect by soil treatment (symbol I)
# How it was run: as §2
# [5] = test system: Echinochloa oryzacola Vasing.; test: Test Example 2: herbicidal activity, application during weed generation in submerged conditions (symbol A); details: Table 23; application herbicide amount 320 g/ha; grade 0-5 by criteria of Test Example 1
# How it was run: as §4
# Scirpus juncoides [6] = test: Test Example 1: herbicidal activity, application before weed generation in submerged conditions (symbol B); details: application herbicide amount 320 g/ha
# How it was run: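 Paddy pre-emergence test. Formulated emulsion, water-diluted to a predetermined rate, is applied to floodwater on sowing day; rice transplanted at 2.5 leaves. Effect read at 3 weeks on a 0–5 herbicidal-ratio scale.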
# [7] = application herbicide amount 320 g/ha
Compound,"Effect on crop grade, f: beet (beet; [7])","g: rapeseed, effect on crop grade (rapeseed)","Herbicidal effect grade, O: Chenopodium album (Chenopodium album [1]; [7])","O: Chenopodium album, herbicidal effect grade (Chenopodium album [2])","F: Digitaria ciliaris, herbicidal effect grade (Digitaria ciliaris)","b: directly sowed rice plant, effect on crop grade (rice plant)","Herbicidal effect grade, P: Stellaria media (Stellaria media; [7])","Herbicidal effect grade, B: Scirpus juncoides (Scirpus juncoides [3])",H (Echinochloa crus-galli var. crus-galli) herbicidal effect grade [4],"Herbicidal effect grade, I: Avena fatua (Avena fatua; [7])","Herbicidal effect grade, A: Echinochloa oryzacola Vasing. [5]",B (Scirpus juncoides) herbicidal effect grade (Scirpus juncoides [6]),"f: beet, effect grade on crop (beet)","g: rapeseed, effect on crop (criteria 0-5) (rapeseed)","O: Chenopodium album, herbicidal effect grade (Chenopodium album [1]; 320 g/ha)","O: Chenopodium album, herbicidal effect (criteria 0-5) (Chenopodium album [2])","F: Digitaria ciliaris, herbicidal effect (criteria 0-5) (Digitaria ciliaris)","b: directly sowed rice plant, effect on crop (criteria 0-5) (rice plant)","P: Stellaria media, herbicidal effect grade (Stellaria media; 320 g/ha)","herbicidal effect on H (Echinochloa crus-galli var. crus-galli), grade 0-5 [4]",also measured
CC#Cc1cc(C)c(C2=C(O)CC(CC(=NOCCOC)C(C)C)C2=O)c(C)c1 (stereo not drawn) [9-023],0 (Herbicidal ratio of 5% or lower (almost no effect)),5 (Herbicidal ratio of 90% or more (almost completely withered)),0 (Herbicidal ratio of 5% or lower (almost no effect)),3 (Herbicidal ratio of 40% or higher and lower than 70%),5 (Herbicidal ratio of 90% or more (almost completely withered)),5 (Herbicidal ratio of 90% or more (almost completely withered)),0 (Herbicidal ratio of 5% or lower (almost no effect)),4 (Herbicidal ratio of 70% or higher and lower than 90%),5 (Herbicidal ratio of 90% or more (almost completely withered)),2 (Herbicidal ratio of 20% or higher and lower than 40%),5 (Herbicidal ratio of 90% or more (almost completely withered)),5 (Herbicidal ratio of 90% or more (almost completely withered)),–,–,–,–,–,–,–,–,–
Cc1cc(-n2cc(Cl)cn2)cc(C)c1C1=C(O)CC(CC(=NOCC(F)(F)F)C(C)C)C1=O (stereo not drawn) [9-014],0 (Herbicidal ratio of 5% or lower (almost no effect)),2 (Herbicidal ratio of 20% or higher and lower than 40%),0 (Herbicidal ratio of 5% or lower (almost no effect)),0 (Herbicidal ratio of 5% or lower (almost no effect)),5 (Herbicidal ratio of 90% or more (almost completely withered)),5 (Herbicidal ratio of 90% or more (almost completely withered)),0 (Herbicidal ratio of 5% or lower (almost no effect)),0 (Herbicidal ratio of 5% or lower (almost no effect)),5 (Herbicidal ratio of 90% or more (almost completely withered)),0 (Herbicidal ratio of 5% or lower (almost no effect)),2 (Herbicidal ratio of 20% or higher and lower than 40%),4 (Herbicidal ratio of 70% or higher and lower than 90%),–,–,–,–,–,–,–,–,–
CCC(CC1CC(O)=C(c2c(C)cc(Br)cc2OC)C1=O)=NOC (mixture of isomers) [13-001],–,4 (Herbicidal ratio of 70% or higher and lower than 90%),–,0 (Herbicidal ratio of 5% or lower (almost no effect)),5 (Herbicidal ratio of 90% or more (almost completely withered)),5 (Herbicidal ratio of 90% or more (almost completely withered)),–,0 (Herbicidal ratio of 5% or lower (almost no effect)),5 (Herbicidal ratio of 90% or more (almost completely withered)),–,5 (Herbicidal ratio of 90% or more (almost completely withered)),2 (Herbicidal ratio of 20% or higher and lower than 40%),–,–,–,–,–,–,–,–,"f: beet, effect on crop grade (beet; [7]): 0 (Herbicidal ratio of 5% or lower (almost no effect)); O: Chenopodium album, herbicidal effect grade (Chenopodium album [1]; [7]): 0 (Herbicidal ratio of 5% or lower (almost no effect)); P: Stellaria media, herbicidal effect grade (Stellaria media; [7]): 0 (Herbicidal ratio of 5% or lower (almost no effect)); I: Avena fatua, herbicidal effect grade (Avena fatua; [7]): 2 (Herbicidal ratio of 20% or higher and lower than 40%)"
CC(CC1CC(O)=C(c2c(C)cc(C)cc2C)C1=O)=NOCc1ccc(Cl)cc1 (stereo not drawn) [1-137],–,–,–,–,–,–,–,4 (Herbicidal ratio of 70% or higher and lower than 90%),–,–,4 (Herbicidal ratio of 70% or higher and lower than 90%),–,0 (Herbicidal ratio of 5% or lower (almost no effect)),4 (Herbicidal ratio of 70% or higher and lower than 90%),0 (Herbicidal ratio of 5% or lower (almost no effect)),3 (Herbicidal ratio of 40% or higher and lower than 70%),5 (Herbicidal ratio of 90% or more (almost completely withered)),5 (Herbicidal ratio of 90% or more (almost completely withered)),0 (Herbicidal ratio of 5% or lower (almost no effect)),5 (Herbicidal ratio of 90% or more (almost completely withered)),"I: Avena fatua, herbicidal effect grade (Avena fatua; 320 g/ha): 2 (Herbicidal ratio of 20% or higher and lower than 40%); Herbicidal effect grade, B: Scirpus juncoides (Scirpus juncoides [6]): 5 (Herbicidal ratio of 90% or more (almost completely withered))"
CCCON=C(C)CC1CC(O)=C(c2c(C)cc(C)cc2C)C1=O (stereo not drawn) [1-123],–,–,–,–,–,–,–,3 (Herbicidal ratio of 40% or higher and lower than 70%),–,–,5 (Herbicidal ratio of 90% or more (almost completely withered)),–,0 (Herbicidal ratio of 5% or lower (almost no effect)),5 (Herbicidal ratio of 90% or more (almost completely withered)),0 (Herbicidal ratio of 5% or lower (almost no effect)),0 (Herbicidal ratio of 5% or lower (almost no effect)),5 (Herbicidal ratio of 90% or more (almost completely withered)),5 (Herbicidal ratio of 90% or more (almost completely withered)),0 (Herbicidal ratio of 5% or lower (almost no effect)),5 (Herbicidal ratio of 90% or more (almost completely withered)),"I: Avena fatua, herbicidal effect grade (Avena fatua; 320 g/ha): 4 (Herbicidal ratio of 70% or higher and lower than 90%); Herbicidal effect grade, B: Scirpus juncoides (Scirpus juncoides [6]): 4 (Herbicidal ratio of 70% or higher and lower than 90%)"
